Source: US12239686B2, “Immune checkpoint inhibitor combinations” (LYTIX BIOPHARMA AS, priority 2014, dated 2025)
Non-standard residues stand in square brackets, D forms with d. Residues, ends and D or L forms follow the SMILES beside them. No end group written: not given here. Bip = N[C@@H](Cc1ccc(-c2ccccc2)cc1)C(=O)O; dBip = N[C@H](Cc1ccc(-c2ccccc2)cc1)C(=O)O; Dip = N[C@H](C(=O)O)C(c1ccccc1)c1ccccc1

Tests used:
Format in all cases: cell-based, human
HL-60/ADR = assay: In vitro cytotoxic activity, MTS assay; resistance index; settings: HL-60/ADR vs sensitive HL-60 (doxorubicin resistance)
Protocol: (§1) Tumor cells were grown as adherent monolayers or as suspensions at 37° C. in a humidified atmosphere (5% CO2, 95% air). The culture medium was RPMI 1640 containing 2 mM L-glutamine (Lonza, Belgium) and supplemented with 10% fetal bovine serum (FBS, Lonza). For experimental use, the adherent cells were detached from the culture flask by a 5-minute treatment with trypsin-versene (Lonza), diluted in Hanks' medium without calcium or magnesium (Lonza) and neutralized by addition of complete culture medium. Cells were counted in a hemocytometer and their viability was assessed by 0.25% trypan blue exclusion.
(§2) Tumor cells were plated in 96-well flat-bottom microtitration plates (Nunc, Dutscher, Brumath, France) and incubated at 37° C. for 24 hours before treatment in 190 μl of drug-free culture medium supplemented or not with 10% FBS for adherent or suspension growing cell lines, respectively.
(§3) The adherent cell lines were washed once with 200 μl FBS-free culture medium before treatment. Tumor cells were incubated for 4 hours with 10 concentrations of compounds in ¼ dilution step with a top dose of 400 μM (range 4×10^−4 to 4×10^−10 M), with 1% (final concentration) Triton X-100 as positive control and FBS-free culture medium as negative control. The cells (190 μl) were incubated in a 200 μl final volume of FBS-free culture medium containing test substances at 37° C. under 5% CO2.
(§4) Three independent experiments were performed, each concentration being tested in quadruplicate. Control cells were treated with vehicle alone. At the end of treatments, the cytotoxic activity was evaluated by a MTS assay (see § 3.3).
(§5) Like MTT, MTS is bioreduced by cells into a formazan product that is directly soluble in culture medium without processing, unlike MTT.
(§6) At the end of the cells treatment, 40 μl of a 0.22 μm filtered freshly combined solution of MTS (20 ml at 2 mg/ml, Ref G1111, Batch 235897, Exp 03/2009, Promega, Charbonnières, France) and PMS (1 ml at 0.92 mg/ml, Ref P9625, Batch 065K0961, Sigma) in Dulbecco's Phosphate Buffered Saline (DPBS, Ref 17-513Q, Batch 6MB0152, Cambrex), were added in each well. Culture plates were incubated for 2 h at 37° C. Absorbency (OD) were measured at 490 nm in each well using VICTOR^3TM 1420 multilabeled counter (Wallac, PerkinElmer, Courtaboeuf, France).
(§7) [formula] • The OD values are the mean of 4 experimental measurements. • IC50: drug concentration to obtain a 50% inhibition of cell proliferation.
(§8) The dose-response curves were plotted using XLFit 3 (IDBS, United Kingdom). The IC50 determination values were calculated using the XLFit 3 software from semi-log curves. Individual IC50 determination values as well as mean and SD values were generated.
(§9) Resistance index was calculated using the following formula: […]
(§10) Resistance index was calculated for each compound for each couple of sensitive and resistant cell lines. Individual resistance index was calculated when IC50 values of both sensitive and corresponding resistant cell lines were determined within same experiment. In addition, resistance index was also calculated ratio of mean IC50 values obtained during three independent experiments.

MCF-7/mdr = MCF-7/mdr vs sensitive MCF-7 (doxorubicin resistance)
Protocol: as §1, §2, §3, §4, §5, §6, §7, §8, §9, §10

IGROV-1/CDDP = IGROV-1/CDDP vs IGROV-1 (cisplatin resistance)
Protocol: as §1, §2, §3, §4, §5, §6, §7, §8, §9, §10

CCRF-CEM/VLB = assay: Resistance index from MTS cytotoxicity; settings: CCRF-CEM/VLB vs CCRF-CEM
Protocol: as §1, with “exclusion. […]” for “exclusion.”
Three independent experiments were performed, each concentration being tested in quadruplicate. […] At the end of treatments, the cytotoxic activity was evaluated by a MTS assay (see § 3.3). […]
as §6, with “Culture plates were incubated for 2 h at 37° C.” left out, “France). […]” for “France).”
as §9

A375 cells = assay: Confocal microscopy, fluorescence-labeled peptide internalization; settings: 1.5 and 3 μM
Protocol: Fixed cells, fluorescence-labeled peptide-Subconfluential A375 cells were seeded at 8,000 cells/well as above, and transfected on the second day using the Lipofectamine LTX with Plus transfection reagents (Invitrogen) following the manufacturer's protocol. The mitochondria were labeled using the pDsRed2-Mito, and the nucleus was labeled using the GFP-Histon2B plasmid (Imaging Platform, University of Tromsø). A day after transfection, cells were washed twice with serum-free RPMI, and treated at different concentration and incubation periods with LTX-315 Pacific Blue or LTX-328 Pacific Blue.
Control cells were treated with unlabeled LTX-315 and also with serum-free RPMI only. After incubation, cells were fixed with 4% paraformaldehyde in PBS, and the wells were covered with Prolong Gold antifade (Invitrogen). Cells were further analyzed by use of a Leica TCS SP5 confocal microscope, with a […] objective. Pacific Blue, GFP and Ds Red were excited using UV, with 488 and 561 lasers, and fluorescence channels were sequentially detected using the following band passes: UV: 420-480 nm (with attenuation), 488: 501-550 nm and 561: 576-676 nm.

Compound	Resistance index (RI) (HL-60/ADR)	Resistance index (RI) (MCF-7/mdr)	Resistance index (RI) (IGROV-1/CDDP)	Resistance index (RI) (CCRF-CEM/VLB)	internalization of Pacific Blue-labeled peptide (A375 cells)
NCCCC[C@H](NC(=O)[C@H](Cc1c[nH]c2ccccc12)NC(=O)[C@H](CCCCN)NC(=O)[C@H](CCCCN)NC(=O)[C@@H](NC(=O)[C@H](Cc1c[nH]c2ccccc12)NC(=O)[C@H](CCCCN)NC(=O)[C@H](CCCCN)NC(=O)[C@@H](N)Cc1c[nH]c2ccccc12)C(c1ccccc1)c1ccccc1)C(N)=O [LTX-302, W-K-K-W-Dip-K-K-W-K-NH2] (H-WKKW[Dip]KKWK-NH2; N-terminus assumed)	1.31	1.23	0.33	–	–
NCCCC[C@H](NC(=O)[C@H](Cc1c[nH]c2ccccc12)NC(=O)[C@H](Cc1c[nH]c2ccccc12)NC(=O)[C@H](CCCCN)NC(=O)[C@H](CCCCN)NC(=O)[C@H](Cc1c[nH]c2ccccc12)NC(=O)[C@H](Cc1ccc(-c2ccccc2)cc1)NC(=O)[C@H](CCCCN)NC(=O)[C@@H](N)CCCCN)C(N)=O [LTX-313, K-K-Bip-W-K-K-W-W-K-NH2] (H-KK[Bip]WKKWWK-NH2; N-terminus assumed)	1.16	1.24	0.49	0.76	–
N=C(N)NCCC[C@H](NC(=O)[C@H](Cc1c[nH]c2ccccc12)NC(=O)[C@H](Cc1c[nH]c2ccccc12)NC(=O)[C@H](CCCNC(=N)N)NC(=O)[C@H](CCCNC(=N)N)NC(=O)[C@@H](NC(=O)[C@H](Cc1c[nH]c2ccccc12)NC(=O)[C@H](CCCNC(=N)N)NC(=O)[C@@H](N)CCCNC(=N)N)C(c1ccccc1)c1ccccc1)C(N)=O [LTX-320, R-R-W-Dip-R-R-W-W-R-NH2] (H-RRW[Dip]RRWWR-NH2; N-terminus assumed)	0.90	1.19	0.49	–	–
NCCCC[C@@H](N)C(=O)N[C@H](CCCCN)C(=O)N[C@H](Cc1ccc(-c2ccccc2)cc1)C(=O)N[C@H](Cc1c[nH]c2ccccc12)C(=O)N[C@H](CCCCN)C(=O)N[C@H](CCCCN)C(=O)N[C@H](Cc1c[nH]c2ccccc12)C(=O)N[C@H](Cc1c[nH]c2ccccc12)C(=O)N[C@H](CCCCN)C(N)=O [LTX-329, k-k-bip-w-k-k-w-w-k-NH2] (H-[dK][dK][dBip][dW][dK][dK][dW][dW][dK]-NH2; N-terminus assumed)	0.80	1.07	0.46	0.76	–
KAQ[Dip]QKQAW-NH2 [LTX-328, reference compound]	–	–	–	–	did not demonstrate any internalization
